The source of these data is article PMC12102262 (Nature Communications, 2025).

Assay [1] deals with T1, EML4-ALK (Homo sapiens, UniProt Q9HC35+Q9UM73). In words: EML4-ALK degradation in BaF3-EML4-ALK cells by immunoblotting. The conditions noted are these: 1 μM, same time points. It is filed as cell-based. A general note: Immunoblotting shows a protein as a band on a membrane.
In the next assay the test system is BaF3-EML4-ALK cells. Briefly: CCK8 cell viability time course, BaF3-EML4-ALK cells. The assay is classed as cell-based. To be noted: 1 μM.
The target of assay [2] is T1, EML4-ALK. In words: EML4-ALK protein levels in H3122 xenograft tumors, I.P. dosing, immunoblotting. To be noted: 10 mg/kg I.P. every other day, 8 doses. The assay is classed as in vivo, nude mice.
Another assay concerns the target GID4 and ALK (Homo sapiens, UniProt Q8IVV7+Q9UM73). In words: NanoBRET cellular ternary complex formation assay, HEK293T cells. It is filed as cell-based. To be noted: 6 h, increasing concentrations. For orientation: Bioluminescence resonance energy transfer reports proximity on the nanometre scale.

Sequence of GID4 and ALK (Q9UM73 1094-1400 limits assumed): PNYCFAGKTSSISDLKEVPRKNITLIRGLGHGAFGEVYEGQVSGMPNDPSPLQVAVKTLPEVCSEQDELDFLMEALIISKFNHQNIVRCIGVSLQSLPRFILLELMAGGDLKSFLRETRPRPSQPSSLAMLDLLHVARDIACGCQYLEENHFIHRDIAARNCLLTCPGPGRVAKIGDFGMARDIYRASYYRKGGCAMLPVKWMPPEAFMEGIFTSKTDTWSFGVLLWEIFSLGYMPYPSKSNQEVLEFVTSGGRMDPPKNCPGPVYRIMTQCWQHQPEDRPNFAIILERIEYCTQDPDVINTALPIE
Sequence of GID4 and ALK (Q8IVV7 whole entry): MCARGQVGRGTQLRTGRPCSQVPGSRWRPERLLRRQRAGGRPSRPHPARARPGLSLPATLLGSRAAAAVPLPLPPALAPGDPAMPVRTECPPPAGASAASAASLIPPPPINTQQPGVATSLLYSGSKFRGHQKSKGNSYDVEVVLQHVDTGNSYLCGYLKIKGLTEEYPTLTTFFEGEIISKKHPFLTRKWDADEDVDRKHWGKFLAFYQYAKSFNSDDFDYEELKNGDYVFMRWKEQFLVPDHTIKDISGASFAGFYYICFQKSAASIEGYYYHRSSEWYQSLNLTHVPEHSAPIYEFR

For the molecule `COc1cc(N2CCC(N3CCN(C)CC3)CC2)ccc1Nc1ncc(Cl)c(Nc2ccccc2P(C)(C)=O)n1` [Brigatinib], on EML4-ALK [1], the “effect on levels of EML4-ALK” value is “had no effect”. For the same molecule, the “time post-treatment at which cell proliferation is inhibited” value with BaF3-EML4-ALK cells was 0.5 h. The “effect on EML4-ALK protein levels in tumors” value at EML4-ALK [2] is recorded as “failed to reduce”. The “BRET signal between GID4 and ALK” value at GID4 and ALK is listed as “did not induce any BRET signal”.
